Laboratory results taken from patent US20060276412A1, “METHODS AND COMPOSITIONS FOR MANAGING PSYCHOTIC DISORDERS” (priority 2005, published 2006).
Where “and” joins values, the source holds several entries; their conditions need not be identical. Equal values may be shown once. Read-outs that look alike come from different tables or passages of the source.

Columns and labels:
[1] = tested on: serotonin (5HT) in hypothalamus; test: Brain microdialysis: serotonin in hypothalamus; type: in vivo, rats; conditions: 25 mg/kg zonisamide
Source text: (§1) 62 adult Sprague-Dawley male rats (Harland, Indianapolis) weighing 300-350 g were used in the following studies. The rats were quarantined for at least five days in group housing. Following the quarantine procedure, rats were maintained in individual cages. For surgical implantation with intracerebral guides, guides were inserted directly above either the hypothalamus (HT) (31 rats), or the medial prefrontal cortex (mPFC) (31 rats). Stereotaxic coordinates (Paxinos and Watson, 1986) provided below were used to position the guide cannulae and/or probes: Animals were anesthetiszed according using standard procedures. The head of each animal was shaved from the front of the eyes to the back of the skull. Shaved areas were disinfected, and the animals were placed in stereotaxic frame ear bars. The animal was aligned with the incisor bar. The animal's scalp was cut with a sharp #15 scalpel blade. If the bone began to bleed, bone wax was applied to the incision. Periosteal tissue was cleaned from the skull to the lateral ridges with a cotton swab, and clamps were used to pull the skin out of the way. The probe or guide was placed in the clamp, such that the angled outlet cannula of the microdialysis probe was angled towards the animal's tail. The target coordinates were calculated, and this point was marked on the skull. Two holes in opposing skull bones were drilled for bone anchor screws and thread screws. The dura was torn away with a sharp, pointed object. The guide cannulae were placed at the dorsal/ventral zero point. […] Using dental acrylic, the cannulae were cemented to the bone anchor screws. The cement was allowed to harden and the rodent was removed from the stereotaxic frame. The cranial and caudal aspects of the incision were sutured. The animals were allowed to recover for three to five days. Stylets in the guides were replaced with dialysis probes on the evening prior to study to allow for animal acclimation and to reestablish the integrity of the blood brain barrier. […] Rats were weighed pre-surgery, every 1-2 days post-surgery until time of microdialysis, and postmortem. Microdialysis probes used in the experiments described below were first soaked in standard Ringer's perfusion medium for 30 minutes. Inlet and outlet tubing was connected to each probe using flanged connectors. The outlet tubing was connected to a fraction collector, and the inlet was connected to and […] syringe drive. The probes were immersed in fresh Ringer's solution and flushed with Ringer's perfusion medium at a rate of 2 μl/min for 1 hour. The probe was then transferred to the intracerebral guide on the rat's skull. […] Water was added to obtain a final concentration of 0.3 mg/ml. […] Zonisamide was dissolved in DMSO. […] The final concentration of zonisamide was 7.5 mg/ml. The drug solution was maintained at 37° C. prior to injection. The rats were divided into ten test groups. Five animals were analyzed for each test group. The test groups were as follows: For the microdialysis experiments, perfusion consisted of 2 μl/min delivery of sterile standard Ringer's solution for intervals of 20 minutes. Final collection volumes were 40 μl. 30 μl samples were analyzed for each analyte: DA, NE, 5HT. 12 pre-dose samples and 12 post dose samples were collected every 20 minutes for a duration of 4 hours, both pre-dose and post-dose. Six samples from the pre-dose and post-dose collections were analyzed for norepinephrine. The remaining six samples from the pre-dose and post-dose collections were analyzed for both dopamine and serotonin. Samples were chilled to -80° C. immediately following collection. The samples were analyzed using liquid chromatography with electrochemical detection using conventional techniques. See, e.g., Huang, T., R. et al. (1994) New […] Microbore Columns for Liquid Chromatography. Current Separations 12(4): 191-195. […] Concentrations of each compound are expressed as % baseline.

[2] = tested on: serotonin (5HT) in medial prefrontal cortex; test: Brain microdialysis: serotonin in mPFC; type: in vivo, rats; conditions: 25 mg/kg zonisamide
Source text: as §1

[3] = tested on: dopamine (DA) in hypothalamus; test: Brain microdialysis: dopamine in hypothalamus; type: in vivo, rats; conditions: 25 mg/kg zonisamide
Source text: as §1

[4] = tested on: dopamine (DA) in medial prefrontal cortex; test: Brain microdialysis: dopamine in mPFC; type: in vivo, rats; conditions: 25 mg/kg zonisamide
Source text: as §1

[5] = tested on: norepinephrine (NE) in hypothalamus; test: Brain microdialysis: norepinephrine in hypothalamus; type: in vivo, rats; conditions: 25 mg/kg zonisamide
Source text: as §1

[6] = tested on: norepinephrine (NE) in medial prefrontal cortex; test: Brain microdialysis: norepinephrine in mPFC; type: in vivo, rats; conditions: 25 mg/kg zonisamide
Source text: as §1

[7] = tested on: psychotic patients (bipolar manic state, schizoaffective manic state, schizophrenic excitement); conditions: cited from earlier work; for patients showing remarkable global improvement: addition of zonisamide
[8] = patients presenting with primary obesity; cited from earlier work
[9] = tested on: carbonic anhydrase; conditions: cited from earlier work

Compound: NS(=O)(=O)Cc1noc2ccccc12 [zonisamide]
- Serotonin concentrations in hypothalamus ([1]; 3 HOUR AVE): 96.664 % baseline and 96.6637 % baseline
- Serotonin concentrations in hypothalamus ([1]; 40 min post dose): 139.708 % baseline
- Serotonin concentrations in hypothalamus ([1]; 80 min post dose): 88.171 % baseline
- Serotonin concentrations in hypothalamus ([1]; 120 min post dose): 87.586 % baseline
- Serotonin concentrations in hypothalamus ([1]; 160 min post dose): 64.925 % baseline
- Serotonin concentrations in hypothalamus ([1]; 200 min post dose): 98.920 % baseline
- Serotonin concentrations in hypothalamus ([1]; 240 min post dose (Table 7)): 100.672 % baseline
- Serotonin concentrations in hypothalamus ([1]; +220 min post dose): 100.672 % baseline
- Serotonin concentrations in hypothalamus ([1]; -20 min pre dose): 133.061 % baseline
- Serotonin concentrations in hypothalamus ([1]; -60 min pre dose): 79.388 % baseline
- Serotonin concentrations in hypothalamus ([1]; -100 min pre dose): 87.552 % baseline
- Serotonin concentrations in mPFC ([2]; 3 HOUR AVE): 77.954 % baseline and 77.9543 % baseline
- Serotonin concentrations in mPFC ([2]; 40 min post dose): 96.932 % baseline
- Serotonin concentrations in mPFC ([2]; 80 min post dose): 74.461 % baseline
- Serotonin concentrations in mPFC ([2]; 120 min post dose): 60.557 % baseline
- Serotonin concentrations in mPFC ([2]; 160 min post dose): 82.729 % baseline
- Serotonin concentrations in mPFC ([2]; 200 min post dose): 89.529 % baseline
- Serotonin concentrations in mPFC ([2]; 240 min post dose): 63.518 % baseline
- Serotonin concentrations in mPFC ([2]; -20 min pre dose): 107.652 % baseline
- Serotonin concentrations in mPFC ([2]; -60 min pre dose): 119.648 % baseline
- Serotonin concentrations in mPFC ([2]; -100 min pre dose): 72.700 % baseline
- Dopamine concentrations in hypothalamus ([3]; 3 HOUR AVE): 104.3854 % baseline and 105.438 % baseline
- Dopamine concentrations in hypothalamus ([3]; 40 min post dose): 121.635 % baseline
- Dopamine concentrations in hypothalamus ([3]; 80 min post dose): 72.946 % baseline
- Dopamine concentrations in hypothalamus ([3]; 120 min post dose): 91.707 % baseline
- Dopamine concentrations in hypothalamus ([3]; 160 min post dose): 66.181 % baseline
- Dopamine concentrations in hypothalamus ([3]; 200 min post dose): 143.010 % baseline
- Dopamine concentrations in hypothalamus ([3]; 240 min post dose): 123.012 % baseline
- Dopamine concentrations in hypothalamus ([3]; -20 min pre dose): 142.394 % baseline
- Dopamine concentrations in hypothalamus ([3]; -60 min pre dose): 56.252 % baseline
- Dopamine concentrations in hypothalamus ([3]; -100 min pre dose): 101.354 % baseline
- Dopamine concentrations in mPFC ([4]; 3 HOUR AVE): 117.183 % baseline
- Dopamine concentrations in mPFC ([4]; 40 min post dose): 166.688 % baseline
- Dopamine concentrations in mPFC ([4]; 80 min post dose): 86.224 % baseline
- Dopamine concentrations in mPFC ([4]; 120 min post dose): 111.764 % baseline
- Dopamine concentrations in mPFC ([4]; 160 min post dose): 109.627 % baseline
- Dopamine concentrations in mPFC ([4]; 200 min post dose): 94.060 % baseline
- Dopamine concentrations in mPFC ([4]; 240 min post dose): 134.732 % baseline
- Dopamine concentrations in mPFC ([4]; -20 min pre dose): 98.672 % baseline
- Dopamine concentrations in mPFC ([4]; -60 min pre dose): 87.652 % baseline
- Dopamine concentrations in mPFC ([4]; -100 min pre dose): 113.677 % baseline
- Norepinephrine concentrations in hypothalamus ([5]; 3 HOUR AVE): 124.221 % baseline and 124.272 % baseline
- Norepinephrine concentrations in hypothalamus ([5]; 20 min post dose): 194.380 % baseline
- Norepinephrine concentrations in hypothalamus ([5]; 60 min post dose): 151.267 % baseline
- Norepinephrine concentrations in hypothalamus ([5]; 100 min post dose): 101.287 % baseline
- Norepinephrine concentrations in hypothalamus ([5]; 140 min post dose): 99.489 % baseline
- Norepinephrine concentrations in hypothalamus ([5]; 180 min post dose): 102.237 % baseline
- Norepinephrine concentrations in hypothalamus ([5]; 220 min post dose): 91.722 % baseline
- Norepinephrine concentrations in hypothalamus ([5]; -40 min pre dose): 111.356 % baseline
- Norepinephrine concentrations in hypothalamus ([5]; -80 min pre dose): 88.184 % baseline
- Norepinephrine concentrations in hypothalamus ([5]; -120 min pre dose): 100.460 % baseline
- Norepinephrine concentrations in mPFC ([6]; 3 HOUR AVE): 114.112 % baseline and 114.142 % baseline
- Norepinephrine concentrations in mPFC ([6]; 20 min post dose): 164.376 % baseline
- Norepinephrine concentrations in mPFC ([6]; 60 min post dose): 102.033 % baseline
- Norepinephrine concentrations in mPFC ([6]; 100 min post dose): 105.920 % baseline
- Norepinephrine concentrations in mPFC ([6]; 140 min post dose): 102.114 % baseline
- Norepinephrine concentrations in mPFC ([6]; 180 min post dose): 115.233 % baseline
- Norepinephrine concentrations in mPFC ([6]; 220 min post dose): 95.176 % baseline
- Norepinephrine concentrations in mPFC ([6]; -40 min pre dose): 101.451 % baseline
- Norepinephrine concentrations in mPFC ([6]; -80 min pre dose): 106.249 % baseline
- Norepinephrine concentrations in mPFC ([6]; -120 min pre dose): 92.300 % baseline
- patients showing remarkable global improvement ([7]; all the patients (24)): Approximately 25%
- patients with more than moderate global improvement ([7]; all the patients (24)): Approximately 71%
- patients with more than moderate global improvement ([7]; bipolar group): ~80%
- patients showing remarkable global improvement ([7]; bipolar manic patients): ~33%
- weight loss [8]: significant weight loss
- inhibitory effect on carbonic anhydrase [9]: weak inhibitory effect
